Consider five compounds from patent US20140323504A1, “Pyrazolo[4,3-c]Pyridine Derivatives As Kinase Inhibitors” (Cellzome Limited, priority 2011, published 2014).

By IC50 is commonly meant the concentration needed to halve the response being measured.

For assay [1], the target named is T1, ITK (Homo sapiens, UniProt Q08881).
T1 construct: purchased ProQinase GmbH, Freiburg, Germany
T1 sequence (Q08881 1-620): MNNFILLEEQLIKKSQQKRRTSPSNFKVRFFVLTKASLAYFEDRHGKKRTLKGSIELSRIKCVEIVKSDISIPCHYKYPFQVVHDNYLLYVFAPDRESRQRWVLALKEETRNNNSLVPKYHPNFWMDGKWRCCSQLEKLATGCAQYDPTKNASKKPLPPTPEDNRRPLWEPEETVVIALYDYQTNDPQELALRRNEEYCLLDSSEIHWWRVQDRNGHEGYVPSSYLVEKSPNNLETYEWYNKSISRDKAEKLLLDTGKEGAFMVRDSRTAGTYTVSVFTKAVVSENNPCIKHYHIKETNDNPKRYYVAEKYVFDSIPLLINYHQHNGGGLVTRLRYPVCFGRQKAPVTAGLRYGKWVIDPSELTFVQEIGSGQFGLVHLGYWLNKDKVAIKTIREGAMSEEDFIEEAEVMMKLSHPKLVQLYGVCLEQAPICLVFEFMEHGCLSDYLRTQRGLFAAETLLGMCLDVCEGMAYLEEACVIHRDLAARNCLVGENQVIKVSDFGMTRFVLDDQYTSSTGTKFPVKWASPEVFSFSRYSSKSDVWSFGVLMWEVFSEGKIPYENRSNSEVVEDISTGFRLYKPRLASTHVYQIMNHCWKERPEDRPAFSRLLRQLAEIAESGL
Briefly: Kinobeads assay with quantitative mass spectrometry, ITK. Format: binding. Conditions: Jurkat/Ramos lysate, read-out: ITK inhibition value (IC50). As to the method:
Selected compounds of the present invention as described in the previous examples were tested in a Kinobeads™ assay as described (WO-A 2006/134056; Bantscheff et al., 2007. Nature Bioteclmol. 25, 1035-1044).
Compounds were incubated with cell lysate aliquots (1:1 mix of Jurkat and Ramos cell lysates) for 45 minutes at 4° C. and allowed to bind to the proteins in the lysate sample. Then the Kinobeads™ affinity matrix was added to capture proteins that were not interacting with the previously added compound. After this two hour incubation step at 4° C. beads were separated from the lysate and bead bound proteins were eluted in SDS sample buffer and subsequently separated by SDS-Polyacrylamide gel electrophoresis. The gel was stained with colloidal Coomassie and stained areas of each gel lane were cut out and subjected to in-gel proteolytic digestion with trypsin. Peptides originating from the different gel areas were labeled with isobaric tagging reagents (TMT reagents, Thermofisher) as shown in Table 7. The TMT reagents are a set of multiplexed, amine-specific, stable isotope reagents that can label peptides in up to six different biological samples enabling simultaneous identification and quantitation of peptides. The combined samples were fractionated using reversed-phase chromatography at pH 11 and fractions were subsequently analyzed with a nano-flow liquid chromatography system coupled online to a tandem mass spectrometer (LC-MSMS) experiment followed by reporter ion quantification in the MSMS spectra (Ross et al., 2004. Mol. Cell. Proteomics 3(12):1154-1169; Dayon et al., 2008. Anal. Chem. 80(8):2921-2931; Thompson et al., 2003. Anal. Chem. 75(8):1895-1904). Further experimental protocols can be found in WO2006/134056 and previous publications (Bantscheff et al., 2007. Nat. Biotechnol. 25, 1035-1044; Bantscheff et al., 2011. Nat. Biotechnol. 29(3):255-265).

In assay [2] the target is T1, ITK. In words: Radiometric protein kinase assay (33PanQinase, ProQinase), ITK. Format: biochemical. Conditions: ATP at apparent Km (1.0 μM); for IC50: read-out: ITK enzyme assay IC50. As to the method: A radiometric protein kinase assay (^33PanQinase® Activity Assay; ProQinase GmbH, Freiburg, Germany) was used for measuring the kinase activity of the protein kinases BLK, BTK, ITK and JAK3. All kinase assays were performed in 96-well FlashPlates™ from PerkinElmer (Boston, Mass., USA) in a 50 μl reaction volume. The reaction cocktail was pipetted in four steps in the following order: • 20 μl of assay buffer (standard buffer) • 5 μl of ATP solution (in H2O) • 5 μl of test compound (in 10% DMSO) • 10 μl of substrate/10 μl of enzyme solution (premixed)
The reaction cocktails were incubated at 30° C. for 60 minutes. The reaction was stopped with 50 μl of 2% (v/v) H3PO4, plates were aspirated and washed two times with 200 μl 0.9% (w/v) NaCl. Incorporation of ^33Pi was determined with a microplate scintillation counter (Microbeta, Wallac). All assays were performed with a BeckmanCoulter/SAGIAN™ Core System.

For `C#CC(=O)Nc1cccc(Cn2ncc3cnc(Nc4cnn(C)c4)nc32)c1` [Example 3, N-(3-((6-((1-Methyl-1H-pyrazol-4-yl)amino)-1H-pyrazolo[3,4-d]pyrimidin-1-yl)methyl)phenyl)propiolamide], the IC50 amounted to 12 nM at ITK [1] and 3 nM at ITK [2].
For `C=CC(=O)Nc1cc(Cn2ncc3cnc(Nc4cnn(C)c4)nc32)ccc1F` [Example 2, […]], the IC50 on ITK [1] came to 818 nM.
As to `CC(=O)Nc1cccc(Cn2ncc3cnc(Nc4cnn(C)c4)nc32)c1` [compound 2, N-(3-((6-((1-methyl-1H-pyrazol-4-yl)amino)-1H-pyrazolo[3,4-d]pyrimidin-1-yl)methyl)phenyl)acetamide, reference compound], at ITK [2], the “ITK enzyme assay IC50” value is “inactive”.
Regarding `C=CS(=O)(=O)Nc1cccc(Cn2ncc3cnc(Nc4cnn(C)c4)nc32)c1` [Example 4, N-(3-((6-((1-Methyl-1H-pyrazol-4-yl)amino)-1H-pyrazolo[3,4-d]pyrimidin-1-yl)methyl)phenyl)ethenesulfonamide], at ITK [2], the IC50 is 80 nM.
With `C=CC(=O)Nc1cccc(Cn2ncc3cnc(Nc4cnn(C)c4)nc32)c1` [Example 1, N-(3-((6-((1-Methyl-1H-pyrazol-4-yl)amino)-1H-pyrazolo[3,4-d]pyrimidin-1-yl)methyl)phenyl)acrylamide], the IC50 on ITK [1] came out at 86 nM; on ITK [2], 230 nM.
